Results on four compounds are retold here after ChEMBL document CHEMBL1157258, “Triterpenoids from Schisandra lancifolia with anti-HIV-1 activity” (J Nat Prod, 2006).

Converted amounts (≈) assume the structure as drawn.

As usually defined, the CC50 is the concentration that lowers cell viability or growth by half. High values mean lower toxicity to the cells, low ones greater toxicity to the cells. Usually EC50 stands for the concentration giving half of the maximal effect.

Data set [1] is described as follows: Cytotoxicity against human C8166 cells by MTT assay. The class given is cell-based. A general note: Formazan colour is commonly taken as a measure of viable cells.
For data set [2], the system named is Human immunodeficiency virus 1. The experiment in a line: Antiviral activity against HIV1 infected in human C8166 cells assessed as inhibition of viral-induced cytopathic effect. It is filed as functional, organism-based. The following applies: Human immunodeficiency virus 1, C8166. (Protection from cytopathic effect is a common read-out in antiviral testing.)

`C[C@@H]1CCC(=O)O[C@@H]2C[C@@]3(C)[C@@H]4[C@@H](O)C[C@H]5C(C)(C)C(=O)CC[C@@]56C[C@@]46C[C@@H](O)[C@]3(C)[C@@H]12` [LANCIFODILACTONE H]: in data set [1], the 50% cytotoxic concentration (CC50) was greater than 200 µg/mL. Further, the EC50 in data set [2] was 16.6 µg/mL (≈ 37.3 µM).

Compound `C/C(=C/CC[C@@H](C)[C@H]1CC[C@@]2(C)[C@@H]3CC[C@@H](C(C)(C)O)[C@@]4(CCC(=O)O)C[C@@]34CC[C@]12C)C(=O)O` [LANCIFOICACID A] displayed a CC50 in data set [1] of 105 µg/mL (≈ 215 µM). Besides, the EC50 in data set [2] was found to be 16.2 µg/mL (≈ 33.1 µM). On to `C=C(C)[C@@H]1CC[C@@H]2[C@]3(CC[C@]4(C)[C@@H]([C@H](C)CC/C=C(/C)C(=O)O)CC[C@@]24C)C[C@]13CCC(=O)O` [NIGRANOIC ACID], for which it took 88 µg/mL (≈ 187 µM) to reach half-maximal cytotoxicity in data set [1] (CC50). In addition, the EC50 in data set [2] was determined as 10.3 µg/mL (≈ 21.9 µM).

`Cc1cn([C@H]2C[C@H](N=[N+]=[N-])[C@@H](CO)O2)c(=O)[nH]c1=O` [ZIDOVUDINE] displayed a CC50 in data set [1] greater than 200 µg/mL.
